pEC50: −log10 of the molar value. Structures can show the parent of a compound that is named as a salt.
target: T1, mGlu2 (Homo sapiens, UniProt Q14416); experiment: not given; details: agonist; cited from earlier work
T1 sequence (Q14416 19-872): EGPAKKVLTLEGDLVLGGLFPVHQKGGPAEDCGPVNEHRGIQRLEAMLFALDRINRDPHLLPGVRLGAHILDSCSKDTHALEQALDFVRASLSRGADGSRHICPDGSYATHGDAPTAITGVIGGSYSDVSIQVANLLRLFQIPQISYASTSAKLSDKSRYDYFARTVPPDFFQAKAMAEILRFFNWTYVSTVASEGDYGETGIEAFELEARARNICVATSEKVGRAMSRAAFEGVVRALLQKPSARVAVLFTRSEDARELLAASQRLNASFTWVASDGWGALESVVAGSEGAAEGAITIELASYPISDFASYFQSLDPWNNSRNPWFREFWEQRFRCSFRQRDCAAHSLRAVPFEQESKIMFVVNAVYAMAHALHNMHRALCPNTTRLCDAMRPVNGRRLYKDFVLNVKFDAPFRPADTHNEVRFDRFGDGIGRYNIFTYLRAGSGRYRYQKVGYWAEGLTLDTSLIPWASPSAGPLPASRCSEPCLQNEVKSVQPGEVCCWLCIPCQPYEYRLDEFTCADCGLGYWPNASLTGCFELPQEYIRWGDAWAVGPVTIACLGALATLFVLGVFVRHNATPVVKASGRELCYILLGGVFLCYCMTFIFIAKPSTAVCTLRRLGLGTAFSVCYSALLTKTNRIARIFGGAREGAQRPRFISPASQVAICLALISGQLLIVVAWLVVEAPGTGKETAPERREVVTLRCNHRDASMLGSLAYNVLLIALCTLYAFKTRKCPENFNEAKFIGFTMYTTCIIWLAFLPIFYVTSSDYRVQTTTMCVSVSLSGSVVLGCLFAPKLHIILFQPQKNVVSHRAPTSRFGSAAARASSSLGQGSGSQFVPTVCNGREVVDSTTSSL

Q: With `N[C@@]1(C(=O)O)CO[C@H]2[C@H](C(=O)O)[C@H]21` [LY379268] as the compound, how does the pEC50 read?
A: 8.52

target: T1, mGlu2; experiment: FLIPR intracellular Ca2+ assay, potentiation of glutamate at mGlu2 receptor in HEK293 cell clone; assay type: cell-based; parameters: V5/His (named in the vector only); expressed in transfected cells; host or cells: HEK293; details: potentiation of 1 μM glutamate, HEK293 cells expressing human mGlu2, rGLAST and Galpha16
Protocol: For the purpose of the present study, a cell line permanently expressing the human mGlu2 receptor, the rat glutamate transporter rGLAST and the alpha subunit of G16 was generated by transfection. Briefly, HEK293 cells were seeded in petri dishes (diameter 15 cm) at a density of 2×10^6 cells in DMEM with glutamax (Invitrogen, GIBCO #21885-025), 10% dialyzed Fetal Calf Serum (Invitrogen, Gibco #26400-044), and incubated at 37° C. over night. The following day cells were transfected with Lipofectamine (Invitrogen, Gibco #18324-012) as recommended by the manufacturer, using linearized pcDNA3.1 (V5/His)-hmGlu2 receptor (ScaI) and pcDNA3.1 Zeo-Ga16 IRES rGLAST (SspI). After transfection the cells were selected in DMEM Glutamax Medium (Invitrogen, GIBCO #21885-025), containing 10% dialyzed fetal calf serum (FCS; (Invitrogen, Gibco #26400-044), antibiotic/antimycotic, 800 μg/ml Geneticin (G418) and 250 μg/ml Zeozin. Single clones were isolated manually and further subcloned by serial dilution.
The function of the mGlu2 receptor was determined by evaluating intracellular Ca^2+ concentrations under standard conditions in a fluorometric imaging plate reader (FLIPR, Molecular Devices, Union City, Calif. 94587, USA) by measuring the response of the cells to a test compound. The FLIPR assay is a common functional assay to monitor native or recombinant Galphaq-coupled receptors, and native or recombinant receptors normally linked to other G-protein signalling cascades, which are coupled to calcium through co-expression of an alpha subunit of a promiscuous or chimeric G-protein. In the assay the increase of intracellular calcium is measured through a calcium-dependent fluorescent dye (e.g. Fluo-4 AM) in the FLIPR instrument.
For selection of a suitable cell clone and also the subsequent measurements of the selected clone, 4×10^4 cells/well were plated on poly-D-lysine coated Biocoat-plates multiwell 96 in DMEM Glutamax (GIBCO #21885-025)/10% dialyzed FCS over night. The following day, the medium was aspirated and exchanged for glutamate-free DMEM (Gibco #21969-035), without FCS or glutamine, containing 50 μg/ml gentamycin (Gibco #15750). Cells were again incubated over night. Before the measurement, cells were loaded with 2 μM Fluo-4 AM (Molecular Probes, F14201; stock solution 1 mM in DMSO) and 0.02% Pluronic F127 (Molecular Probes, P3000; stock solution 10% in DMSO) in DMEM medium (Gibco #21969-035) for 45 minutes at 37° C. in a final volume of 100 μl per well. Finally, the plates were washed in a BioTec cell washer with HBSS, containing 20 mM HEPES. The end-volume in each well was 100 μl. The plates were subsequently measured in a fluorometric imaging plate reader (FLIPR, Molecular Devices, Union City, Calif. 94587, USA).
The compounds of the present invention were tested in the above-described FLIPR assay using the selected cell clone. Increased intracellular calcium levels were quantified following addition of test compound (agonism), as well as following addition of a submaximal concentration of 1 micromolar (1 μM) glutamate (potentiation).
For the determination of the effect of the test compound by itself (agonism) or by increasing the response to a submaximal concentration (e.g. 1 μM) of glutamate (potentiation), the resulting signal is determined by subtraction of the background fluorescence from the maximal fluorescent peak height of the respective response. In the FLIPR instrument the compound is given to the cell and its fluorescence response quantified by the FLIPR instrument (agonism). The concentration at which the compound exerts half its maximal effect is named the ‘effective concentration 50’ or ‘EC50’. The maximal effect induced by the test substance is normalized to the maximal effect exerted by 100 μM glutamate (set at 100%).
Ten minutes after addition of the test compound to the plate, 1 μM glutamate is added. A potentiator enhances the response of the receptor to glutamate. […]

Q: With `CCCCN1Cc2cc(Nc3cncc(-c4ccccc4)c3)cc(Cl)c2C1=O` [Example 4, 2-butyl-7-chloro-5-[(5-phenylpyridin-3-yl)amino]-2,3-dihydro-1H-isoindol-1-one] as the compound, how does the pEC50 read?
A: 5.70 to 6.30

Q: With `CCCCN1Cc2cc(Nc3cncc(N4CCNCC4)c3)ccc2C1=O` [Example 5, 2-butyl-5-{[5-(piperazin-1-yl)pyridin-3-yl]amino}-2,3-dihydro-1H-isoindol-1-one] as the compound, how does the pEC50 read?
A: 5.00 to 5.70

Q: With `CCCCN1Cc2cc(Nc3cc(N4CCNCC4)cnc3Cl)ccc2C1=O` [Example 6, 2-butyl-5-{[2-chloro-5-(piperazin-1-yl)pyridin-3-yl]amino}-2,3-dihydro-1H-isoindol-1-one] as the compound, how does the pEC50 read?
A: 5.00 to 5.70

Q: With `CCCCN1Cc2cc(Nc3cncc(Cl)c3)ccc2C1=O` [Example 7, 2-butyl-5-[(5-chloropyridin-3-yl)amino]-2,3-dihydro-1H-isoindol-1-one] as the compound, how does the pEC50 read?
A: 5.70 to 6.30

Q: With `CCCCN1Cc2cc(Nc3cncc(N4CCOCC4)c3)ccc2C1=O` [Example 8, 2-butyl-5-{[5-(morpholin-4-yl)pyridin-3-yl]amino}-2,3-dihydro-1H-isoindol-1-one] as the compound, how does the pEC50 read?
A: > 6.30

Q: With `CCCCN1Cc2cc(Nc3cc(N4CCN(C)CC4)cnc3Cl)ccc2C1=O` [Example 9, 2-butyl-5-{[2-chloro-5-(4-methylpiperazin-1-yl)pyridin-3-yl]amino}-2,3-dihydro-1H-isoindol-1-one] as the compound, how does the pEC50 read?
A: 5.70 to 6.30

Q: With `CCCCN1Cc2cc(Nc3cncc(N4CCN(C)CC4)c3)ccc2C1=O` [Example 10, 2-butyl-5-{[5-(4-methylpiperazin-1-yl)pyridin-3-yl]amino}-2,3-dihydro-1H-isoindol-1-one] as the compound, how does the pEC50 read?
A: 5.00 to 5.70

Q: With `CCCCN1Cc2cc(Oc3cncc(-c4ccccc4)c3)ccc2C1=O` [Example 11, 2-butyl-5-[(5-phenylpyridin-3-yl)oxy]-2,3-dihydro-1H-isoindol-1-one] as the compound, how does the pEC50 read?
A: > 6.30

Q: With `CCCCN1Cc2c(Oc3cncc(-c4ccccc4)c3)cccc2C1=O` [Example 12, 2-butyl-4-[(5-phenylpyridin-3-yl)oxy]-2,3-dihydro-1H-isoindol-1-one trifluoroacetate] as the compound, how does the pEC50 read?
A: > 6.30

Q: With `CCCCN1CCc2c(Oc3cncc(-c4ccccc4)c3)cccc2C1=O` [Example 13, 2-butyl-5-[(5-phenylpyridin-3-yl)oxy]-3,4-dihydroisoquinolin-1(2H)-one trifluoroacetate] as the compound, how does the pEC50 read?
A: > 6.30

Q: With `CCCCN1CCc2cc(Oc3cncc(-c4ccccc4)c3)ccc2C1=O` [Example 14, 2-butyl-6-[(5-phenylpyridin-3-yl)oxy]-3,4-dihydroisoquinolin-1(2H)-one trifluoroacetate] as the compound, how does the pEC50 read?
A: > 6.30

Q: With `CCCCN1Cc2ccc(Oc3cncc(-c4ccccc4)c3)cc2C1=O` [Example 15, 2-butyl-6-[(5-phenylpyridin-3-yl)oxy]-2,3-dihydro-1H-isoindol-1-one trifluoroacetate] as the compound, how does the pEC50 read?
A: 5.70 to 6.30

Q: With `CCCCN1Cc2cc(Nc3cncc(-c4ccccc4)n3)ccc2C1=O` [Example 16, 2-butyl-5-(6-phenyl-pyrazin-2-ylamino)-2,3-dihydro-isoindol-1-one] as the compound, how does the pEC50 read?
A: > 6.30

Q: With `CCCCN1Cc2cc(Nc3cnc4ccccc4c3)ccc2C1=O` [Example 17, 2-butyl-5-(quinolin-3-ylamino)-2,3-dihydro-1H-isoindol-1-one] as the compound, how does the pEC50 read?
A: 5.70 to 6.30

Q: With `CCCCN1Cc2cc(Nc3cnc4ccccc4n3)ccc2C1=O` [Example 18, 2-butyl-5-(quinoxalin-2-ylamino)-2,3-dihydro-1H-isoindol-1-one] as the compound, how does the pEC50 read?
A: 5.00 to 5.70

Q: With `COCCN1Cc2cc(Nc3cncc(-c4ccccc4)c3)ccc2C1=O` [Example 19, 2-(2-methoxyethyl)-5-[(5-phenylpyridin-3-yl)amino]-2,3-dihydro-1H-isoindol-1-one] as the compound, how does the pEC50 read?
A: 5.70 to 6.30

Q: With `CCCCN1Cc2cc(Nc3cccnc3Cl)ccc2C1=O` [Example 20, 2-butyl-5-[(2-chloropyridin-3-yl)amino]-2,3-dihydro-1H-isoindol-1-one] as the compound, how does the pEC50 read?
A: 5.00 to 5.70

Q: With `CCCCN1CCc2c(Oc3cc(N4CCNCC4)cnc3Cl)cccc2C1=O` [Example 21, 2-butyl-5-{[2-chloro-5-(piperazin-1-yl)pyridin-3-yl]oxy}-3,4-dihydroisoquinolin-1(2H)-one] as the compound, how does the pEC50 read?
A: 5.70 to 6.30

Q: With `CCCCN1CCc2c(Oc3cc(N4CCN(C)CC4)cnc3Cl)cccc2C1=O` [Example 22, 2-butyl-5-{[2-chloro-5-(4-methylpiperazin-1-yl)pyridin-3-yl]oxy}-3,4-dihydroisoquinolin-1(2H)-one] as the compound, how does the pEC50 read?
A: 5.70 to 6.30

Q: With `CCCCN1Cc2cc(Cc3cncc(-c4ccccc4)c3)ccc2C1=O` [Example 23, 2-butyl-5-[(5-phenylpyridin-3-yl)methyl]-2,3-dihydro-1H-isoindol-1-one] as the compound, how does the pEC50 read?
A: 5.70 to 6.30

Q: With `CCCCN1Cc2cc(-c3cncc(-c4ccccc4)c3)ccc2C1=O` [Example 24, 2-butyl-5-(5-phenylpyridin-3-yl)-2,3-dihydro-1H-isoindol-1-one] as the compound, how does the pEC50 read?
A: 5.70 to 6.30

Source: patent US8314120B2, “Small molecule potentiators of metabotropic glutamate receptors” (Abbott GmbH & Co. KG, priority 2010, dated 2012)
